Laboratory results: article PMC10650714, “Double Attack to Oxidative Stress in Neurodegenerative Disorders: MAO-B and Nrf2 as Elected Targets” (Molecules, 2023)
Entries after “also recorded” stand apart in the source; their conditions may differ. Read-outs that look alike come from different tables or passages of the source.

Assays:
[1] = tested on: Nrf2 nuclear translocation in SH-SY5Y cells; assay: Nrf2 nuclear translocation (Western blot of nuclear extracts); format: cell-based, human
Description: In physiological conditions, the repressor Keap1 traps Nrf2 at the cytosolic level, preventing the activation of Nrf2 pathway. The disruption of Keap1–Nrf2 interaction allows for Nrf2 nuclear translocation, thus resulting in the transcriptional activation of its target cytoprotective genes. […] We and others have previously developed several compounds bearing caffeic and ferulic fragments able to activate Nrf2 in terms of the up-regulation of Nrf2 expression, translocation into the nucleus and induction of the Nrf2-dependent defensive genes, with (pro)electrophilic features emerging as key players. Herein, to analyse the effect of the new molecules on the Nrf2 downstream cascade, the ability of compounds 1–5 to increase Nrf2 nuclear translocation was preliminary evaluated as a pivotal step in Nrf2 signalling activation (Figure 6). Based on MAO-B inhibitory potency and cell toxicity assay, compounds were studied in SH-SY5Y human neuroblastoma cells at the concentration of 5 μM. Given the high structural analogy with our derivatives, we selected the well-known Nrf2 inducer CAPE [37, 38] as the reference compound, and verified its ability to induce Nrf2 nuclear translocation at different concentrations, ranging from 5 µM to 50 µM in our experimental model (Figure S6). Nrf2 nuclear content was assessed via Western blot analysis. […] Consistently, data from literature highlight discrepancies about pioglitazone-mediated Nrf2 activation, indicating its ability to activate Nrf2 in longer timeframes and different in vitro and in vivo experimental conditions. […] The preliminary docking performed on human Keap-1 confirms the excellent positioning of compound 2 within the BTB domain pocket, where cysteine 151 is located (see Figure S5). […] Particularly, all these new molecules hold the characteristic (pro)electrophilic fragments, which however, in this case, resulted to be insufficient to activate Nrf2, as reported for other ferulic and caffeic derivatives. In this regard, optimal target interaction might play a major role, but further biological investigations are needed to fully clarify the mechanism of Nrf2 activation and the effect on the downstream expression of cytoprotective genes.
SH-SY5Y cells (5 × 106) were seeded in […] dishes and treated for 3 h with 5 μM compounds; afterward, the medium was removed, and cells were washed twice with ice-cold PBS. Cells were subsequently homogenized 15 times using a glass−glass Dounce homogenizer in 0.32 M sucrose, buffered with 20 mM Tris- HCl (pH 7.4), containing 2 mM EDTA, 0.5 mM EGTA, 50 mM β-mercaptoethanol and 20 μg/mL leupeptin, apotrinin and pepstatin. The homogenate was centrifuged at 300× g for 5 min to obtain the nuclear fraction. An aliquot of the nuclear fraction was used for protein assay via the Bradford method, whereas the remaining was boiled for 5 min after dilution with sample buffer and subjected to polyacrylamide gel electrophoresis and immunoblotting, as described.

[2] = target: T1, recombinant hMAO-A (Homo sapiens, UniProt P21397); assay: hMAO-A activity assay (kynuramine, fluorimetric); format: biochemical
T1 construct: purchased Fluka-Sigma-Aldrich s.r.l; (Italy); host or cells: Baculovirus infected BT1 cells
T1 sequence (P21397 1-527): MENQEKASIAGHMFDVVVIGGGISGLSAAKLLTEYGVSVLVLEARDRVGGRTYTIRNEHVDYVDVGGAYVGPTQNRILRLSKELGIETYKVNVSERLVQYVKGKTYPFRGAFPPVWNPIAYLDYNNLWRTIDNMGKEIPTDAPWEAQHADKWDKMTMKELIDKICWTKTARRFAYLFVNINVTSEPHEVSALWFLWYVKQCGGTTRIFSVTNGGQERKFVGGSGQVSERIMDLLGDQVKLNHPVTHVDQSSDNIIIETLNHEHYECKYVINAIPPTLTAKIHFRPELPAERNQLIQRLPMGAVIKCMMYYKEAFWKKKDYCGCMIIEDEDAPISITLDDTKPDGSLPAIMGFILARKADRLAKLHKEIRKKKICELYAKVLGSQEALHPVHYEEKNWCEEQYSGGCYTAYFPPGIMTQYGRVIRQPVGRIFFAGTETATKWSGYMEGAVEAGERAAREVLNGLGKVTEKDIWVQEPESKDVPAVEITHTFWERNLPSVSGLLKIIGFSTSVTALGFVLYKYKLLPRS
Description: Human recombinant hMAO-A and hMAO-B expressed in Baculovirus infected BT1 cells (5 mg/mL) and horseradish peroxidases were purchased from Fluka-Sigma-Aldrich s.r.l. (Italy). A Cary Eclipse fluorimeter (Varian Inc., Palo Alto, CA, USA) was used for fluorescence measurements. […] At first, the peroxidase-coupled continuous assay that detect the H2O2 generation rate was considered. It uses the Amplex Red reagent as the fluorogenic substrate for horseradish peroxidase.
By applying this method, hMAO activity assays were performed in K/Pi 0.1 M, EDTA 1 mM (total volume: 200 μL; pH 7.4, T = 37 °C), in the presence and in absence of various concentrations of the different compounds (0.2–20 μM and 2–50 μM in the case of hMAO–B and hMAO-A, respectively).
MAOs stock solutions were diluted with assay buffer in the presence or absence of the tested compound to obtain a final concentration of 0.005 mg/mL for MAO-A and 0.010 mg/mL for MAO-B; then, kynuramine (10–300 μM final concentration) was added to the assay solution. After 45–60 min of incubation at 37 °C, the reaction was stopped by the addition of 2 M NaOH (80 μL) and 480 μL of distilled water. Kynuramine deaminated by MAO spontaneously cyclizes to provide 4-hydroxyquinoline, the amount of which was determined by the fluorescence intensity of the peak of its emission spectra (λexc = 330 nm and λem 330–530 nm). Then, the rate of reaction was calculated using a specific calibration curve (in the presence of the same amount of the tested compound) built with the standard 4-hydroxyquinoline.
Under these experimental conditions, the Michaelis–Menten equation for rate of reaction, can be simplified as follows: V ≈ (Vmax/KM) [E]0[S]0 [49]. In the presence of an inhibitor, one or both the kinetic parameters, KM and Vmax, might be affected by its presence, depending on the inhibition mechanism. In particular, in the presence of a reversible inhibitor, both the kinetic parameters could be affected, and the apparent kinetic parameter would then become: KM I = KM,0 (1 + [I]/Ki)/(1 + [I]/(αKi)), and VmaxI = Vmax0/(1 + [I]/(αKi)), where α is the factor indicating how much the dissociation constant of the enzyme-substrate-I complex is different from that of the enzyme–I complex (also named Ki). Consequently, the ratio of the initial rate of reaction in the absence (Vo) and in the presence (VI) of the tested compound (Vo/VI) can be simplified to the ratio of (Vmax/KM)o/(Vmax/KM)I ≈ (1 + [I]/Ki).
To study the mechanism of inhibition, the steady-state kinetic parameters (Vmax and Km) of MAO-A and MAO-B were determined by performing experiments at different substrate concentrations and in the absence and presence of different concentrations of the tested compound. Vmax and Km were calculated by fitting the Michaelis–Menten equation to the experimental data (initial rate of reactions vs. substrate concentrations), with Sigma Plot software, version 9.0 (Jandel Scientific, San Rafael, CA, USA).

[3] = kynuramine [S] = 10 µM, pH 7.4, 37 °C, mean ± S.D., read-out: hMAO-A Ki

Question: O=C(/C=C/c1ccc(O)c(O)c1)OCCc1ccccc1 [CAPE, caffeic acid phenethyl ester, reference compound] was tested. Which Nrf2 nuclear translocation ([1]; 5 µM and 20 µM, 3 h) did it give?
Answer: induced Nrf2 nuclear translocation

Question: What about the Ki [2] of the same molecule?
Answer: 12 ± 2 µM

Question: What does the source list for O=C(/C=C/c1ccc(O)c(O)c1)Oc1ccc(CC2SC(=O)NC2=O)cc1 (stereo not drawn) [Compound 2, 4-((2,4-Dioxothiazolidin-5-yl)methyl)phenyl (E)-3-(3,4-Dihydroxyphenyl)acrylate]?
Answer: Nrf2 nuclear translocation ([1]; 5 μM, 3 h): most active; also recorded: strongly induced Nrf2 translocation into the nucleus; Ki [2, 3]: 35 ± 4 µM

Question: What does the source list for CCc1ccc(CCOc2ccc(CC3SC(=O)NC3=O)cc2)nc1 (stereo not drawn) [Pioglitazone, reference compound]?
Answer: Nrf2 nuclear translocation ([1]; until concentrations higher than 50 µM): not able to induce Nrf2 nuclear translocations; Ki [2, 3]: > 100 µM
